Data reported in patent US20210128736A1, “STEREOCOMPLEX OF OLIGOLACTIC ACID CONJUGATES IN MICELLES FOR IMPROVED PHYSICAL STABILITY AND ENHANCED ANTITUMOR EFFICACY” (Wisconsin Alumni Research Foundation, priority 2018, published 2021).

What was measured:
[1] = Stability in rat plasma at 37° C. (RP-HPLC); details: 24 hours
[2] = test system: A549 non-small cell lung cancer xenograft; assay: In vivo antitumor efficacy in A549 xenograft model; design: species or system female athymic nude mice; details: 3-weekly I.V. injections at 10 mg/kg equivalent of GEM; micelles 5% loading; vs saline control
Protocol: In vivo antitumor efficacy studies. […] 6-8 week-old female athymic nude mice (20-25 g each) were acquired from laboratory animal resources at School of Medicine and Public Health, University of Wisconsin-Madison. Mice were housed in ventilated cages with free access to water and food and acclimated for 1 week prior tumor cell injection. A549 cells (2×10^6 cells in 100 μL of serum-free RPMI 1640 medium) were harvested from sub-confluent cultures after trypsinization and were injected subcutaneously into the right flank of each mouse. […] Drugs were administered via tail vein for 3 weekly injections. Body weight and tumor volume were monitored over the course of study. Tumor volume was calculated using the formula: V=(a×b^2)/2, where V is tumor volume, a is tumor length, b is tumor width.

[3] = test system: PANC-1 pancreatic cancer cells; assay: In vitro cytotoxicity, CellTiter-Blue Cell Viability Assay, PANC-1; format: cell-based; details: Homo sapiens; PANC-1 cells, 72 hours incubation; micelles at 15% loading
Protocol: (§1) In vitro cytotoxicity studies. […] A549 cells were seeded into a 96-well plate at a seeding density of 1,500 cells/100 μL/well and cultured in RPMI 1640 medium, or PANC-1 cells were seeded into a 96-well plate at a seeding density of 5,000 cells/100 μL/well and cultured in Dulbecco Modified Eagle Medium (DMEM), at 37° C. in 5% CO2 incubator for 24 h. […] Cells cultured with diluted PBS in medium was used as controls. Drug treated cells were placed in an incubator at 5% CO2 at 37° C. for 72 h. The medium in each well was aspirated, and 100 μL of 20% (v/v) CellTiter-Blue reagent in serum free RPMI 1640 or DMEM was added, followed by incubation at 37° C. in 5% CO2 atmosphere for 1.5 h. Fluorescence intensity was measured by a SpectraMax M2 plate reader (Molecular Devices, San Jose, Calif.) with excitation and emission at 560 and 590 nm, respectively. The half maximal inhibitory drug concentration (IC50) was determined by using GraphPad Prism version 5.00 for Windows (GraphPad Software, La Jolla, Calif.).

[4] = test system: human A549 non-small lung cancer cells; assay: In vitro cytotoxicity, CellTiter-Blue Cell Viability Assay, A549; format: cell-based; details: 72 hours incubation, micelles at 15% loading
Protocol: as §1

[5] = mice, reported; cited from earlier work
subcutaneous tumors = details: cited from earlier work

## Nc1ccn([C@@H]2O[C@H](CO)[C@@H](O)C2(F)F)c(=O)n1 [GEM, Gemcitabine]
[1]
  intact GEM detected after incubation in plasma: less than 50%
[2]
  antitumor efficacy (tumor growth, relative tumor volume): not effective
[3]
  IC50: ~9.2 µM
[4]
  IC50: ~1.1 µM
[5]
  maximum tolerated doses (MTD): 100 mg/kg
Subcutaneous tumors; mice bearing subcutaneous tumors
  dose required to inhibit tumor growth: 100 mg/kg
Subcutaneous tumors; mice, GEM at 10 mg/kg
  efficacy against subcutaneous tumors: generally ineffective
